Source: PubChem BioAssay (NCI)
Where “and” joins values, the source holds several entries; their conditions need not be identical. Equal values may be shown once.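 Assay format: 96-well plates, 48-hour exposure. At the GI50, growth is halved. TGI is the concentration that stops growth completely.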

How the values were obtained:
Assay in all cases: NCI anticancer screen, dose series, 48 h
ACHN renal = system: ACHN renal
CCRF-CEM leukemia = system: CCRF-CEM leukemia
NCI-H226 lung = system: NCI-H226 lung
NCI-H23 lung = system: NCI-H23 lung
RPMI-8226 leukemia = system: RPMI-8226 leukemia
SNB-75 CNS = system: SNB-75 CNS
SR leukemia = system: SR leukemia
TK-10 renal = system: TK-10 renal
UACC-62 melanoma = system: UACC-62 melanoma
UO-31 renal = system: UO-31 renal

| SMILES | TGI (ACHN renal) [µM] | TGI (CCRF-CEM leukemia) | TGI (NCI-H226 lung) [µM] | TGI (NCI-H23 lung) [µM] | TGI (RPMI-8226 leukemia) | TGI (SNB-75 CNS) | TGI (SR leukemia) [µM] | TGI (TK-10 renal) [µM] | TGI (UACC-62 melanoma) | TGI (UO-31 renal) | GI50 (ACHN renal) [µM] | GI50 (CCRF-CEM leukemia) [µM] | GI50 (NCI-H226 lung) [µM] | GI50 (NCI-H23 lung) [µM] | GI50 (RPMI-8226 leukemia) [µM] | GI50 (SNB-75 CNS) [µM] | GI50 (SR leukemia) [µM] | GI50 (TK-10 renal) [µM] | GI50 (UACC-62 melanoma) [µM] | GI50 (UO-31 renal) [µM] |
| --- | --- | --- | --- | --- | --- | --- | --- | --- | --- | --- | --- | --- | --- | --- | --- | --- | --- | --- | --- | --- |
| CN(C=O)/C=C/c1cc(O)ccc1O | 29.7 | 54.7 µM | > 78.7 | 64.3 | 75.6 µM | > 59 µM | 51.1 | 54.1 | 46.9 µM | 47 µM | – | – | – | – | – | – | – | – | – | – |
| O=c1c2ccccc2oc2ccc(OCCCCCCN3CCCCCC3)cc12 | 13.2 | 12 µM | 20.2 | 11.7 | 5.78 µM | 14.1 µM | 4.93 | 17.3 | 4.78 µM | 6.32 µM | 3.68 | 3.17 | 4.29 | 3.1 | 2.24 | 3.11 | 1.95 | 3.94 | 2.29 | 2.05 |
| O=C(NCCCCCCCNC(=O)OCc1ccc2c(Cl)cc(Cl)c(O)c2n1)OCc1ccc2c(Cl)cc(Cl)c(O)c2n1 | 0.698 | 1.32 µM | 1.59 | 3.2 | 0.735 µM | 2.43 µM | 1.41 | 2.73 | 2.13 µM | 1.29 µM | 0.26 | 0.282 | 0.557 | 1.49 | 0.247 | 0.905 | 0.267 | 1.4 | 0.845 | 0.321 |
| COc1ccc(CCc2cc(OC)c(OC)c(OC)c2)cc1 | 76.9 | 12.4 µM | 7.46 | 26.9 | 17.1 µM | > 100 µM | 0.78 | > 97.9 | > 100 µM | 83.2 µM | – | – | – | – | – | – | – | – | – | – |
| CCSC(SCC)=C1C(=O)N(c2ccccc2)N=C1C | 29.4 | 11 µM | 29.9 | 34.9 | 27 µM | 43.9 µM | 38.4 | 22.2 | 28 µM | 29 µM | – | – | – | – | – | – | – | – | – | – |
| CSc1ccc(C(=O)C(=O)c2ccc(SC)s2)s1 | > 10 | > 10 µM | > 10 | > 10 | > 10 µM | > 10 µM | > 10 | > 10 | > 10 µM | > 10 µM | – | – | – | – | – | – | – | – | – | – |
| COc1nc(NC2OC(COC(C)=O)C(OC(C)=O)C(OC(C)=O)C2OC(C)=O)c(-c2csc(N)n2)c(=O)n1C (stereo not given) | > 100 | > 100 µM | > 100 | > 100 | > 100 µM | 51.8 µM | > 100 | > 100 | > 100 µM | > 100 µM | – | – | – | – | – | – | – | – | – | – |
| COc1cc2cc3c4c(cc(OC)c(OC)c4c2cc1OC)CCN3C(=O)CCC(=O)NCCCN(C)C | > 100 | 88.2 µM | > 100 | > 100 | > 100 µM | 53.2 µM | 62 | > 100 | > 100 µM | > 100 µM | – | – | – | – | – | – | – | – | – | – |
| CCOP(=O)(OCC)C(C)(CC)NC(=O)C(C(F)(F)F)C(F)(F)F (stereo not given) | > 100 | 48.7 µM and 53.1 µM | > 100 | > 100 | > 81.6 µM and 59.7 µM | > 100 µM | > 100 | > 100 | > 100 µM | > 100 µM | – | – | – | – | – | > 71.6 | – | – | > 100 | – |
| Nc1[nH]c(=O)ncc1CO | > 100 | > 100 µM | > 100 | > 100 | > 100 µM | > 100 µM | > 100 | > 100 | > 100 µM | > 100 µM | > 100 | > 100 | > 100 | > 100 | > 100 | > 100 | > 100 | > 100 | > 100 | > 100 |
| O=S(=O)(c1ccc(O)c(C=Nc2ccc(Cl)cc2)c1)c1ccc(O)c(C=Nc2ccc(Cl)cc2)c1 | > 100 | > 100 µM | > 100 | > 100 | > 100 µM | > 100 µM | > 100 | > 100 | > 100 µM | > 100 µM | – | – | – | – | – | – | – | – | – | – |
| O=C1c2ccccc2C(=O)c2nc3ccc(Cl)cc3cc21 | > 100 | > 100 µM | > 100 | > 100 | > 100 µM | > 100 µM | > 100 | > 100 | > 100 µM | > 100 µM | – | – | – | – | – | – | – | – | – | – |
| COC(=O)CC(C(C(C)=O)C(=O)OCc1ccccc1)N1C(=O)OCC1c1ccccc1 (stereo not given) | > 100 | > 100 µM | > 100 | > 100 | > 100 µM | 71.9 µM | > 100 | > 100 | > 100 µM | > 100 µM | – | – | – | – | – | – | – | – | – | – |
| CC(=O)N(Cc1ccccc1)c1ccccc1I(=O)=O | > 100 | 35.5 µM | > 100 | > 100 | 32.7 µM | > 100 µM | 4.37 | > 100 | > 100 µM | > 100 µM | 36 | 16.6 | > 100 | 37.8 | 15.7 | 50.9 | 0.18 | 45.2 | > 100 | 38 |
| CCOC(=O)C(NC(=O)c1[nH]cnc1/N=N/N(C)C)C(C)C (stereo not given) | > 100 | > 100 µM | > 100 | > 100 | > 100 µM | > 100 µM | > 100 | > 100 | > 100 µM | > 100 µM | – | – | – | – | – | – | – | – | – | – |
| Nc1ccc(S(=O)(=O)Nc2cnc3c(Cl)cccc3n2)cc1 | > 750 | > 657 µM | > 750 | 549 | > 705 µM | > 95 µM and 682 µM | > 750 | 589 | > 93.3 µM and 122 µM | > 56.2 µM and 742 µM | – | – | > 75.6 | > 82.4 | > 95.1 | 51.6 | 23.1 | > 84.7 | 56.3 | > 55.8 |
| CN1CCN(c2nc(-c3ccncc3)nc3sc4c(c23)CCCCCC4)CC1 | 20.5 | 28.8 µM | 34.2 | 24.3 | 26.9 µM | 7.75 µM | 12.2 | 20.5 | 24 µM | 8.85 µM | 7.99 | 8.05 | 10.4 | 11.4 | 8.39 | 1.4 | 2.81 | 6.71 | 11 | 1.57 |
| CC(=O)OC1CC2C(=O)C(=O)C1(C)C2(C)C (stereo not given) | > 100 | > 100 µM | > 100 | > 100 | > 100 µM | > 100 µM | > 100 | > 100 | > 100 µM | > 100 µM | – | – | – | – | – | – | – | – | – | – |
| CC1CCC2N(C1)CC1C3(O)CC45OC6(O)C(O)CCC4(C)C6CCC5C3(O)CC(O)C1(O)C2(C)O (stereo not given) | > 100 | > 100 µM | > 100 | > 100 | > 100 µM | > 100 µM | > 100 | > 100 | > 100 µM | > 100 µM | – | – | – | – | – | – | – | – | – | – |
| COc1ccc(C(O)CC(O)(C(F)(F)F)C(F)(F)F)cc1 (stereo not given) | > 100 | 45.7 µM | > 100 | 77.5 | 57.2 µM | 34.3 µM | 56.3 | > 100 | 87.4 µM | > 100 µM | – | – | – | – | – | – | – | – | – | – |
| CC/C=C\C/C=C\C[C@H](O)C/C=C1/C(=O)C=C[C@@H]1C/C=C\CCCC(=O)OC | 3.4 | 1.77 µM | 3.79 | 5.29 | 7.32 µM | 24.6 µM | 1.87 | 7.68 | 2.85 µM | 3.03 µM | 1.72 | 0.315 | 1.92 | 2.19 | 0.572 | 11.3 | 0.281 | 2.95 | 0.714 | 1.55 |
| CCN(CC)CCN(C(=O)C(C)(C)C)c1ccccc1N | > 100 | > 100 µM | > 100 | > 100 | > 100 µM | > 100 µM | > 100 | > 100 | > 100 µM | > 100 µM | – | – | – | – | – | – | – | – | – | – |
| CC(NC(=O)c1ccccc1)(C(=O)O)C(=O)O | > 100 | > 100 µM | > 100 | > 100 | > 100 µM | > 100 µM | > 100 | > 100 | > 100 µM | > 100 µM | – | – | – | – | – | – | – | – | – | – |
| CNC(=O)CN(CC(N)=O)C(N)=O | > 100 | > 100 µM | > 100 | > 100 | > 100 µM | > 100 µM | > 100 | > 100 | > 100 µM | > 100 µM | – | – | – | – | – | – | – | – | – | – |
| COc1ccc2nc3ccccc3c(NCCCCN(C)CCCl)c2c1 | 0.132 | 0.229 µM | 0.575 | > 100 | 0.544 µM | 0.504 µM | 0.0355 | > 31.9 | 0.305 µM | 1.22 µM | – | – | – | – | – | – | – | – | – | – |
